Assays:
Mice (inbred strain ICR) = assay: Mammalian toxicity, oral gavage; format: in vivo; details: Table 5; preliminary mouse screening
Experimental: Mice ([…] strain ICR, body weight between 20 and 26 g, 35 days old+/−4 days), were force fed with compounds solubilized in olive oil to a volume of 10 μL per gram of mouse via 1 mL disposable syringes attached to 22 gauge metal canulas directly in the stomach following the Institutional Animal Care and Use Committee (IACUC) standard procedure. One hour after gavage, mice were returned to food and water access ad libitum. Dose tested ranged from 60 up to 600 mg/kg of mice, following the method recommended by the US EPA to reduce the number of mice used to determine the LD50 doses. Mice were monitored after drug administration during the first hour, and then every 4 hours up to 24 hours. The surviving mice were humanely sacrificed. Any mice displaying a high state of pain/distress would also be considered as not surviving the treatment and were sacrificed before the end of the investigation. The […] was determined using the AOT425StatPgm software; the study was registered and approved by IACUC under number 201810416.

[1] = system: Aedes aegypti strain Puerto Rico (PR, resistant to permethrin); assay: Topical toxicity (24 hour mortality), Ae. aegypti Puerto Rico; format: in vivo; details: Table 5; topical, 24 h; strain not given, line below OR
Experimental: The Aedes aegypti strains Orlando (sensitive) as well as the Puerto Rico (PR, resistant to permethrin) were used. The Anopheles gambiae (G3 sensitive strain, as well as Akron kdr (Akdr) strain, resistant to pyrethroids were also assessed. The larvae were provided by the USDA, Gainesville Fl, and raised in a pan with tap water maintained at 28° C. Larvae were fed a ground liver and yeast mixture, and pupae were placed in emergence cages. Adults were held at 28° C. and provided with cotton balls soaked in 10% sugar water for rearing and for all bioassays.
Female adults from 3 to 6 days were used for the experiments. The drug was dissolved in ethanol and then applied with a micro-applicator on the thorax, between the legs: 200 nL of drug per female mosquito, with different concentrations of the drug; 10 mosquitos were treated together per concentration per replicate, and put together in a small container with free access to sweet water. Mortality, i.e. no visible movement, was assessed 24 hours after treatment. Every compound was assessed on at least 3 different cohorts of mosquitoes, and the LD50 values and slopes were determined with Probit analysis, corrected with Abbott's formula.

[2] = system: Anopheles gambiae Akron kdr (Akdr) strain, resistant to pyrethroids; assay: Topical toxicity (24 hour mortality), An. gambiae Akdr; format: in vivo; details: Table 5; topical, 24 h
Method in brief: (§1)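 Females aged 3–6 days received 200 nL of compound in ethanol topically on the thorax, 10 per concentration per replicate, and were kept at 28° C with sugar water.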

[3] = system: Aedes aegypti strain Orlando (sensitive); assay: Topical toxicity (24 hour mortality), Ae. aegypti Orlando; format: in vivo; details: Table 5; topical, 24 h
Method in brief: as §1

[4] = system: Anopheles gambiae G3 sensitive strain; assay: Topical toxicity (24 hour mortality), An. gambiae G3; format: in vivo; details: Table 5; topical, 24 h
Method in brief: as §1

[5] = system: Aedes aegypti mosquitoes, insecticide-susceptible Orlando strain; format: in vivo; details: Table 3B; Screened at μg/cm^2
Method in brief: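 Sixteen female mosquitoes per glass tube facing netting-shielded filter paper treated with acetone solutions (30-0.01 μg/ml; screen at 100 μg/cm^2), no contact. Proportion on treated side scored up to 60 min, then flight-out checked 30 min; mortality after 24 hr constant exposure.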

[6] = Table 3B; Hammett substitution constant based on the ionization of benzoic acids; cited from earlier work
[7] = system: Aedes aegypti mosquitoes, insecticide-susceptible Orlando strain; details: Table 3B; Screened at μg/cm^2

Structure (SMILES) | Mouse LD50 (Mice (inbred strain ICR)) | Ae. aegypti LD50 [1] | An. gambiae AKDR LD50 [2] | Ae. aegypti OR LD50 [3] | An. gambiae G3 LD50 [4] | 1h % repellency [5] | σmeta [6] | 24h % mortality [7]
O=C(Nc1cc(Cl)nc(Cl)c1)C(F)(C(F)(F)F)C(F)(F)F [compound 55] | ~50 ng/mg | 7.10 ng/mg | 2.70 ng/mg | 17.20 ng/mg | 5.80 ng/mg | – | – | –
O=C(CCl)Nc1cccc(C(F)(F)F)c1 [compound 4] | – | – | – | – | – | 50% | 0.52 | 3.13%
O=C(Nc1cc(Cl)nc(Cl)c1)C(F)(F)C(F)(F)OC(F)(F)F [compound 54] | >2000 ng/mg | – | 11.00 ng/mg | 17.80 ng/mg | 6.04 ng/mg | – | – | –
O=C(Nc1cc(Cl)nc(C(F)(F)F)c1)C(F)(F)C(F)(F)OC(F)(F)F [compound 57] | >200 ng/mg | – | 3.60 ng/mg | 14.90 ng/mg | 13.70 ng/mg | – | – | –
O=C(CCl)Nc1cccc(O)c1 [compound 2] | – | – | – | – | – | 36% | 0.12 | –
